Target: T1, Tyrosine-protein phosphatase non-receptor type 11 (Homo sapiens, UniProt Q06124)
T1 sequence (Q06124 whole entry): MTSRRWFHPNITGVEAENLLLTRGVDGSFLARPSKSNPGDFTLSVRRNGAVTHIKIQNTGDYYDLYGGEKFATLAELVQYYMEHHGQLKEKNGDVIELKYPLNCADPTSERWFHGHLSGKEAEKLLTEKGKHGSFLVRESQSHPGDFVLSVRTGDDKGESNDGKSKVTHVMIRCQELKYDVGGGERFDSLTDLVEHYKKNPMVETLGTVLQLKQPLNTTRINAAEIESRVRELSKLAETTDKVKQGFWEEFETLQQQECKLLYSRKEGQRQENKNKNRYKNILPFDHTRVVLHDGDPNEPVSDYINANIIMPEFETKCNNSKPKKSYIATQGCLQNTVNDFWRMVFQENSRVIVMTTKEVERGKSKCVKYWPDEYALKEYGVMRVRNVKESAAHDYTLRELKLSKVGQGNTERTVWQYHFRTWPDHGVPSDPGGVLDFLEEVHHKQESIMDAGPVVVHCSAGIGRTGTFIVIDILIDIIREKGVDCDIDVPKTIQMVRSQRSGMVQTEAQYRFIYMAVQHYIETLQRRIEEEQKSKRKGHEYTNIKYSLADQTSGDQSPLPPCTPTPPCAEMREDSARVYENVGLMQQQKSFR
Experiment: Allosteric Inhibition Assay

IC50 [nM]	SMILES
< 50	N[C@@H]1c2ccccc2CC12CCN(c1cnc(/C(=N/O)c3ccccc3)cn1)CC2 [US10934302, Example 257]
< 50	Cc1cc(C(=O)N2CCC3(CC2)Cc2ccccc2[C@H]3N)nn1-c1ccc(F)cc1F [US10934302, Example 289]

SMILES	IC50 [nM]
N[C@@H]1c2ccccc2CC12CCN(c1cnc(SCC3CC3)cn1)CC2 [US10934302, Example 266]	< 50

Source: BindingDB's records for patent US10934302 (Relay Therapeutics, 2021)
